Patent publication US8884023B2, “Pyrano [3,2-D][1,3]thiazole as glycosidase inhibitors” (priority 2011, dated 2014)
pEC50, pIC50: −log10 of the molar value. Read-outs that look alike come from different tables or passages of the source.

What was measured:
O-GlcNAcase = molecular target: T1, O-GlcNAcase (UniProt Q8VIJ5); type: cell-based
T1 sequence (Q8VIJ5 1-916): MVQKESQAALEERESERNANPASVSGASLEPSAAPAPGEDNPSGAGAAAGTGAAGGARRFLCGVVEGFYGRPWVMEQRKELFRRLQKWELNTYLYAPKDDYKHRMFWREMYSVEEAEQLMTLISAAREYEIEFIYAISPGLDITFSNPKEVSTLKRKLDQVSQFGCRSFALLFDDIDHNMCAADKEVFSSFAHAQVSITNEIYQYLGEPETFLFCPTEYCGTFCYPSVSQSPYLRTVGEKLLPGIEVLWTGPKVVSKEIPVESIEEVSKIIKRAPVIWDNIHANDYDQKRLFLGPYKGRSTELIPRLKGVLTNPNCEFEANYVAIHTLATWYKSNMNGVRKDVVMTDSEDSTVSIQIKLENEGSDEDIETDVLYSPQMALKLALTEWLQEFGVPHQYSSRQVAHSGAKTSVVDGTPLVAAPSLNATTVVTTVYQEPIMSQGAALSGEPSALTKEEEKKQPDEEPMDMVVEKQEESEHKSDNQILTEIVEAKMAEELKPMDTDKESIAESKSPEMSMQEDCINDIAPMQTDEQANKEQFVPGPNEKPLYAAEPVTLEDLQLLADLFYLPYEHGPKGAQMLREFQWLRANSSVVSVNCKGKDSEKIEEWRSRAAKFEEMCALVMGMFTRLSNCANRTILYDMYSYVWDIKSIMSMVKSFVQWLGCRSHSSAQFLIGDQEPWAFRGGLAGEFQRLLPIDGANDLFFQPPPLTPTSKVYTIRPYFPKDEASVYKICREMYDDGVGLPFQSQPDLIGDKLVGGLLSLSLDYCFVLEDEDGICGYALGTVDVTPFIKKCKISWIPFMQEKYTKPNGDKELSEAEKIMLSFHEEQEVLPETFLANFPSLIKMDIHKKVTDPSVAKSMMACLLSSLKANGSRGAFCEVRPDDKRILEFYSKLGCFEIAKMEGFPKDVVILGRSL
Description: Assay for the Determination of Cellular Activity for Compounds that Inhibit O-GlcNAcase Activity
Inhibition of O-GlcNAcase, which removes O-GlcNAc from cellular proteins, results in an increase in the level of O-GlcNAcylated proteins in cells. An increase in the O-GlcNAcylation of cellular proteins can be measured by an antibody, such as CTD110.6, that binds O-GlcNAcylated proteins. The amount of O-GlcNAcylated protein can be determined by the enzyme linked immunoabsorbant assay (ELISA) technique.
Cell lines, such as rat B35, rat PC-12 and human SH-SY5Y cells, expressing endogenous levels of O-GlcNAcase, could be utilized. Cells were plated in 96-well plates at a density of approximately 10,000 cells/well. Compounds to be tested were dissolved in DMSO as 10 mM stock solution, and then diluted first with DMSO and then culture media using the Bravo workstation. Cells were treated with diluted compounds for approximately 16 hours. […] To prepare a cell lysate, the media from compound treated cells were removed, and the cells were washed once with Dulbecco's phosphate buffered saline (DPBS) and then lysed for 30 minutes in 100 μl/well of ice cold RIPA buffer containing a protease inhibitor cocktail.
The ELISA portion of the assay was performed in EIA/RIA plates that were coated overnight at 4 C with 80 μl/well of cell lysate. The following day the wells were washed 6 times with 200 μl of wash buffer (0.05% Tween20 in DPBS). The wells were blocked with 200 μl blocking buffer (1% BSA, 0.05% Tween20 in DPBS) for 1 h at room temperature. Each well was then washed 6 times with 200 μl of wash buffer. The anti-O-GlcNAc antibody CTD110.6 (Covance, Princeton, N.J.) was added at 100 μl/well at a concentration of 10 μg/ml. The plates were incubated for 1 h at room temperature. The wells were then washed 6 times with 200 μl/well of wash buffer. To detect the amount of CTD110.6 bound to the cell lysate, alkaline phosphatase conjugated goat anti-mouse IgM (diluted 1:500 in blocking buffer) was added at 100 μl/well and incubated for 45 min at room temperature. Each well was then washed 6 times with 200 μl/well of wash buffer. PNPP tablets dissolved in diethanolamine substrate buffer and 100 μl/well were added as detection reagent.
The amount of O-GlcNAcylated protein, as detected by the ELISA assay, was plotted for each concentration of test compound using standard curve fitting algorithms for sigmoidal dose response curves. The values for a four parameter logistic curve fit of the data were determined, with the inflection point of the curve being the potency value for the test compound.

[1] = molecular target: T2, His-Tagged hOGA (human O-GlcNAcase) (Homo sapiens, UniProt O60502); assay: biochemical
T2 sequence (O60502 1-916): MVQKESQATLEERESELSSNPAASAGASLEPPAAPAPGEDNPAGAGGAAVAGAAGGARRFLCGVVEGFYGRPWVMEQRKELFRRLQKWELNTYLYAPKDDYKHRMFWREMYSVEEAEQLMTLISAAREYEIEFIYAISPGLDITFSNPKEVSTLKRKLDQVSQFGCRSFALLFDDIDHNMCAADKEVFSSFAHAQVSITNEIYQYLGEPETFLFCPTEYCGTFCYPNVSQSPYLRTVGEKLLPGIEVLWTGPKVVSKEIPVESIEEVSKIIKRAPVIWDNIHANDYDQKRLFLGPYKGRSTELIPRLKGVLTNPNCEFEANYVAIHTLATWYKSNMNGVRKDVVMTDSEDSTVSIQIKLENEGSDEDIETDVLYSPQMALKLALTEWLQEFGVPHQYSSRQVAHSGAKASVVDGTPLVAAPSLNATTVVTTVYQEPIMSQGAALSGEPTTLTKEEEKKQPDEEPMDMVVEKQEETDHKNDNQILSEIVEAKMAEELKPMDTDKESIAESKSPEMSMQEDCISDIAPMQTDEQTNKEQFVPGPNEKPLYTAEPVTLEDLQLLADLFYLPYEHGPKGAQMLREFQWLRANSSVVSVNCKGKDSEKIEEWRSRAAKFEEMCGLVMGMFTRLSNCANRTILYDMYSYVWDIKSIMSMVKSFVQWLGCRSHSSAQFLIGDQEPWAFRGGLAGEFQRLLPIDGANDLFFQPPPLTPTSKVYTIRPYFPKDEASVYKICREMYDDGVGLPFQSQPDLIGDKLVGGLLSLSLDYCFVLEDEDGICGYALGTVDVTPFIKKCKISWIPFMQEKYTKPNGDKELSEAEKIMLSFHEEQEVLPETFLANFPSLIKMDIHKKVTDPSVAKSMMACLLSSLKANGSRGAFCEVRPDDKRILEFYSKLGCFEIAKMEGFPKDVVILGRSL
Method: Human O-GlcNAcase Enzyme Inhibition Assay
The following reaction components were added to a final volume of 10 μL in McIlvaine's Buffer (pH 6.5):
20 nM His-Tagged hOGA and 10 μM Fluoroscein mono-beta-D-(2-deoxy-2-N-acetyl) glucopyranoside (FL-GlcNAc; Marker Gene Technologies Inc, Part #M1485). […] The amount of fluorescence measured was plotted against the concentration of inhibitor to produce a sigmoidal dose response curve, from which an IC50 was calculated.

[2] = cells expressing endogenous O-GlcNAcase (such as rat B35, rat PC-12, human SH-SY5Y), approximately 16 hours treatment; read-out: OGA cellular inhibition (EC50)
[3] = read-out: OGA enzyme inhibition (IC50)

pIC50 [1, 3] | SMILES | pEC50 (O-GlcNAcase; [2]) | pIC50 [1] | pEC50 (O-GlcNAcase; read-out: OGA cellular inhibition (EC50); cells expressing endogenous O-GlcNAcase (such as rat B35, rat PC-12, human SH-SY5Y), approximately 16 hours treatment)
 | CCNC1=N[C@@H]2[C@@H](O)[C@H](O)[C@@H](Cn3cc(C(O)(c4ccccc4)C(F)(F)F)nn3)O[C@@H]2S1 (stereo partly shown) [compound 70] | < 6.00 | > 7.00 | 
> 7.00 | CCNC1=N[C@@H]2[C@@H](O)[C@H](O)[C@@H](Cn3cc(COc4cccc(F)c4)nn3)O[C@@H]2S1 [compound 79] | 6.30 to 7.00 |  | 
> 7.00 | CCNC1=N[C@@H]2[C@@H](O)[C@H](O)[C@@H](Cn3cc(COc4cccc(Br)c4)nn3)O[C@@H]2S1 [compound 72] | 6.30 to 7.00 |  | 
 | CCNC1=N[C@@H]2[C@@H](O)[C@H](O)[C@@H](Cn3cc(C(O)c4ccccc4)nn3)O[C@@H]2S1 (stereo partly shown) [compound 68] | < 6.00 | > 7.00 | 
 | CCNC1=N[C@@H]2[C@@H](O)[C@H](O)[C@@H](Cn3cc(COc4ccc(C(C)O)cc4)nn3)O[C@@H]2S1 (stereo partly shown) [compound 90] | < 6.00 | > 7.00 | 
 | CCNC1=N[C@@H]2[C@@H](O)[C@H](O)[C@@H](Cn3cc(COc4ccccc4O)nn3)O[C@@H]2S1 [compound 84] | < 6.00 | 6.30 to 7.00 | 
 | CCNC1=N[C@@H]2[C@@H](O)[C@H](O)[C@@H](Cn3cc(COc4cccc(CO)c4)nn3)O[C@@H]2S1 [compound 75] | < 6.00 | > 7.00 | 
 | CCNC1=N[C@@H]2[C@@H](O)[C@H](O)[C@@H](Cn3cc(Cn4nnc5ccccc54)nn3)O[C@@H]2S1 [compound no. 57, (3aR,5R,6S,7R,7aR)-5-{[4-(1H-1,2,3-benzotriazol-1-ylmethyl)-1H-1,2,3-triazol-1-yl]methyl}-2-(ethylamino)-5,6,7,7a-tetrahydro-3aH-pyrano[3,2-d][1,3]thiazole-6,7-diol] | < 6.00 | > 7.00 | 
 | CCNC1=N[C@@H]2[C@@H](O)[C@H](O)[C@@H](Cn3cc(COc4ccccc4Cl)nn3)O[C@@H]2S1 [compound 86] | > 7.00 | > 7.00 | 
6.30 to 7.00 | CCNC1=N[C@@H]2[C@@H](O)[C@H](O)[C@@H](Cn3cc(C(=O)OC)nn3)O[C@@H]2S1 [compound no. 10, Methyl 1-{[(3aR,5R,6S,7R,7aR)-2-(ethylamino)-6,7-dihydroxy-5,6,7,7a-tetrahydro-3aH-pyrano[3,2-d][1,3]thiazol-5-yl]methyl}-1H-1,2,3-triazole-4-carboxylate] | 6.00 to 6.30 |  | 
> 7.00 | CCNC1=N[C@@H]2[C@@H](O)[C@H](O)[C@@H](Cn3cc(COc4ccccc4F)nn3)O[C@@H]2S1 [compound 89] | 6.30 to 7.00 |  | 
 | CCNC1=N[C@@H]2[C@@H](O)[C@H](O)[C@@H](Cn3cc(COc4ccccc4OC)nn3)O[C@@H]2S1 [compound 88] | < 6.00 | > 7.00 | 
 | CCNC1=N[C@@H]2[C@@H](O)[C@H](O)[C@@H](Cn3cc(COc4cccc(OC)c4)nn3)O[C@@H]2S1 [compound 80] | 6.30 to 7.00 | > 7.00 | 
 | CCNC1=N[C@@H]2[C@@H](O)[C@H](O)[C@@H](Cn3cc(COc4cccc(C#N)c4)nn3)O[C@@H]2S1 [compound 73] | 6.00 to 6.30 | > 7.00 | 
> 7.00 | CCNC1=N[C@@H]2[C@@H](O)[C@H](O)[C@@H](Cn3cc(COc4cccc(O)c4)nn3)O[C@@H]2S1 [compound 74] | < 6.00 |  | 
 | CCN(C(=O)OC(C)(C)C)C1=N[C@@H]2[C@@H](O)[C@H](O)[C@@H](COCc3ccccc3)O[C@@H]2S1 [compound no. 16, Tert-butyl {(3aR,5R,6S,7R,7aR)-5-[(benzyloxy)methyl]-6,7-dihydroxy-5,6,7,7a-tetrahydro-3aH-pyrano[3,2-d][1,3]thiazol-2-yl}ethylcarbamate] |  | < 6.00 | 
> 7.00 | CCNC1=N[C@@H]2[C@@H](O)[C@H](O)[C@@H](Cn3cc(C4(c5ccccc5)CC4)nn3)O[C@@H]2S1 [compound 99] |  |  | 
< 6.00 | CCNC1=N[C@@H]2[C@@H](O)[C@H](O)[C@@H]([C@H](O)CCc3ccccc3)O[C@@H]2S1 [compound no. 54, (3aR,5R,6S,7R,7aR)-2-Ethylamino-5-((R)-1-hydroxy-3-phenyl-propyl)-5,6,7,7a-tetrahydro-3aH-pyrano[3,2-d]thiazole-6,7-diol] |  |  | 
6.30 to 7.00 | CCNC1=N[C@@H]2[C@@H](O)[C@H](O)[C@@H](Cn3cc(COc4ccccc4CN)nn3)O[C@@H]2S1 [compound 102] |  |  | 
 | CCNC1=N[C@@H]2[C@@H](O)[C@H](O)[C@@H](CN)O[C@@H]2S1 [compound no. 61, (3aR,5R,6S,7R,7aR)-5-(aminomethyl)-2-(ethylamino)-5,6,7,7a-tetrahydro-3aH-pyrano[3,2-d][1,3]thiazole-6,7-diol] |  | 6.30 to 7.00 | 
 | CCNC1=N[C@@H]2[C@@H](O)[C@H](O)[C@@H](CN=[N+]=[N-])O[C@@H]2S1 [compound no. 1, (3aR,5R,6S,7R,7aR)-5-(azidomethyl)-2-(ethylamino)-5,6,7,7a-tetrahydro-3aH-pyrano[3,2-d][1,3]thiazole-6,7-diol] |  |  | 6.30 to 7.00
 | CCNC1=N[C@@H]2[C@@H](O)[C@H](O)[C@@H]([C@@H](O)CCCc3ccccc3)O[C@@H]2S1 [compound no. 56, (3aR,5R,6S,7R,7aR)-2-(ethylamino)-5-((S)1-hydroxy-4-phenylbutyl)-5,6,7,7a-tetrahydro-3aH-pyrano[3,2-d][1,3]thiazole-6,7-diol] |  | 6.30 to 7.00 | 
